Assay results published in patent publication US12187672B2, “1,2-diacylglycerol compound, preparation method therefor, and immunomodulator containing same as active ingredient” (ENZYCHEM LIFESCIENCES CORPORATION, priority 2018, dated 2025).

Columns and labels:
[1] = system: CXCL8 (IL-8); assay: CXCL8 (IL-8) expression reduction in Gemcitabine-treated THP-1 cells (ELISA); assay type: cell-based, human; settings: THP-1 cells; for reduction of CXCL8 (IL-8) expression/secretion: Gemcitabine-treated, 100 μg/ml; for CXCL8 [IL-8] concentration (average ± deviation): sample 100 μg/ml 1 h, then Gemcitabine 2 μg/ml 24 h
Procedure, shortened: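 Human THP-1 macrophage-like cells in RPMI/10% FBS, plated at 1×10^6 cells/ml, pretreated 1 h with compound, then stimulated with Gemcitabine (2 μg/ml) for 24 h at 37° C, 5% CO2. Secreted IL-8 in the supernatant was measured by sandwich ELISA, read at 450 nm.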

[2] = system: IL-6; assay: LPS-induced IL-6 secretion reduction in RAW264.7 cells (ELISA); assay type: cell-based, mouse; settings: for IL-6 concentration (average ± deviation): sample 100 μg/ml 1 h, then LPS 1 μg/ml 24 h
Procedure, shortened: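 Mouse RAW264.7 macrophages in DMEM/10% FBS were plated at 5×10^4 cells/ml, rested for 15 h, treated with compound for 1 h, then stimulated with 1 μg/ml LPS for 24 h at 37 °C. IL-6 in the supernatant was measured by sandwich ELISA (HRP, OD 450 nm) and expressed as reduction rate or concentration.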

[3] = system: STAT3; assay: STAT3 activity, pGL4.47 SIE luciferase reporter in LPS-treated RAW264.7 cells; assay type: cell-based, mouse; settings: sample 100 μg/ml 1 h, then LPS 1 μg/ml 18 h
Experimental: pGL4.47 [luc2P/SIE/Hygro] vector containing the sis-Inducible Element that binds to STAT3 was injected into RAW264.7 cells to confirm the degree of STAT3 activity. In DMEM (Hyclone, Thermo Scientific) medium to which 10% Fetal Bovine Serum was added, RAW264.7 cells were cultured at a concentration of 1×10^5 cells/ml, and maintained in a 5% CO2 humidified incubator at 37° C. The cultured RAW264.7 cells were inoculated into a 48 well plate by 1×10^5 cells/ml and stabilized for 18 hours. Thereafter, the pGL4.47 [luc2P/SIE/Hygro] vector containing sis-Inducible Element was mixed with Attractene to induce complex formation at room temperature for 15 minutes. This complex was treated with the cells and then further incubated for 18 hours. Thereafter, the culture solution was treated with a glycerol derivative compounds of the type shown in Table 5 below for 1 hour and then LPS (1 μg/ml) was treated and further incubated for 18 hours for STAT3 activity. Thereafter, the culture supernatant was removed for each well, and the remaining cells were lysed with a cell lysis buffer, and then cell lysate was recovered. 90 μl of luciferase reagent was mixed with 10 μl of the recovered cell lysate, and the degree of fluorescence was confirmed using a luminometer.

[4] = system: IL-4; assay: PKC activator-induced IL-4 secretion reduction in EL-4 cells (ELISA); assay type: cell-based, mouse; settings: for IL-4 concentration (average ± deviation): sample 100 μg/ml 2 h, then PKC activator 18 h; for decrease of IL-4 secretion/expression: PKC activator-treated, 100 μg/ml
Procedure, shortened: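 Mouse EL-4 lymphoma cells in DMEM/10% FBS pretreated 2 h with compound, then stimulated with 0.5 μg/ml PKC activator (PMA type) for 18 h at 37 °C. Secreted IL-4 in supernatant quantified by sandwich ELISA (OD 450 nm) and expressed as reduction rate.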

For `CCCCC/C=C\C/C=C\CCCCCCCC(=O)OC(COC(C)=O)COC(=O)CCCCCCCCCCCCCCC` (centres unmarked) [EC-18, 1-palmitoyl-2-linoleoyl-3-acetylglycerol, reference compound], the “reduction of CXCL8 (IL-8) expression/secretion” value [1] was “about 20%”, the “CXCL8 [IL-8] concentration (average ± deviation)” value (shortened to “CXCL8 … (average ± deviation)”) [1] was 79.6 ± 6.0 pg/µL and the “decrease of IL-6 secretion/expression compared to the LPS-treated group” value ([2]; 100 μg/ml) was “about 30%”. For the same compound, the “IL-6 concentration (average ± deviation)” value ([2]; Table 2) was 194 ± 11 pg/µL, the “IL-6 concentration (average ± deviation)” value ([2]; Table 3) was 0.491 ± 0.063 pg/µL and the “STAT3 activity_Luciferase activity (average ± deviation)” value [3] was 491.5 ± 41.7. The “IL-4 concentration (average ± deviation)” value ([4]; Table 11) was 662.4 ± 42.4 pg/µL and the “IL-4 concentration (average ± deviation)” value ([4]; Table 12) was 429.2 ± 7.0 pg/µL.
`CCCCC/C=C\C/C=C\CCCCCCCC(=O)OC(COC(=O)CCCCCCCCCCCCCCC)COC(C)C` (centres unmarked) [EC_A21] was tested, and the “reduction of CXCL8 (IL-8) expression/secretion” value [1] was “about 20%”, the “CXCL8 … (average ± deviation)” value [1] was 86.2 ± 0.7 pg/µL and the “IL-6 concentration (average ± deviation)” value ([2]; Table 2) was 176 ± 2 pg/µL. The “IL-4 concentration (average ± deviation)” value ([4]; Table 11) was 488.8 ± 46.2 pg/µL.
For `CCCCC/C=C\C/C=C\CCCCCCCC(=O)OC(COC(=O)CC)COC(=O)CCCCCCCCCCCCCCC` (centres unmarked) [EC_A78], the “CXCL8 … (average ± deviation)” value [1] was 108.5 ± 4.9 pg/µL, the “IL-6 concentration (average ± deviation)” value ([2]; Table 3) was 0.708 ± 0.086 pg/µL and the “STAT3 activity_Luciferase activity (average ± deviation)” value [3] was 912.5 ± 214.2. For the same compound, the “IL-4 concentration (average ± deviation)” value ([4]; Table 12) was 557 ± 11.5 pg/µL.
With `CCCCC/C=C\C/C=C\CCCCCCCC(=O)OC(COC(=O)CCCCCCCCCCCCCCC)COC(=O)C1CC1` (centres unmarked) [EC_A79] the “CXCL8 … (average ± deviation)” value [1] was 108.7 ± 8.3 pg/µL, the “IL-6 concentration (average ± deviation)” value ([2]; Table 3) was 0.652 ± 0.145 pg/µL and the “STAT3 activity_Luciferase activity (average ± deviation)” value [3] was 1183.5 ± 51.6. For the same compound, the “IL-4 concentration (average ± deviation)” value ([4]; Table 12) was 527 ± 17.9 pg/µL.
In the case of `CCCCC/C=C\C/C=C\CCCCCCCC(=O)OC(COC(=O)CCCCCC)COC(=O)CCCCCCCCCCCCCCC` (centres unmarked) [EC_A83], the “CXCL8 … (average ± deviation)” value [1] is reported as 107.7 ± 3.9 pg/µL, the “IL-6 concentration (average ± deviation)” value ([2]; Table 3) is reported as 0.658 ± 0.070 pg/µL and the “STAT3 activity_Luciferase activity (average ± deviation)” value [3] is reported as 510.2 ± 27.2. The “IL-4 concentration (average ± deviation)” value ([4]; Table 12) was 637.9 ± 14.1 pg/µL.
With `CCCCC/C=C\C/C=C\CCCCCCCC(=O)OC(COC(=O)CCC)COC(=O)CCCCCCC` (centres unmarked) [EC_A85] the “CXCL8 … (average ± deviation)” value [1] was 94.4 ± 3.4 pg/µL, the “IL-6 concentration (average ± deviation)” value ([2]; Table 3) was 0.741 ± 0.071 pg/µL and the “STAT3 activity_Luciferase activity (average ± deviation)” value [3] was 1126.7 ± 32.1. The “decrease of IL-4 secretion/expression” value [4] was “about 20%” and the “IL-4 concentration (average ± deviation)” value ([4]; Table 12) was 485.1 ± 19.2 pg/µL.
In the case of `CCCCC/C=C\C/C=C\CCCCCCCC(=O)OC(COC(=O)CCCC)COC(=O)CCCCCCC` (centres unmarked) [EC_A86], the “CXCL8 … (average ± deviation)” value [1] is reported as 99.2 ± 4.9 pg/µL, the “IL-6 concentration (average ± deviation)” value ([2]; Table 3) is reported as 0.796 ± 0.045 pg/µL and the “STAT3 activity_Luciferase activity (average ± deviation)” value [3] is reported as 866.2 ± 15.2. The “decrease of IL-4 secretion/expression” value [4] was “about 20%” and the “IL-4 concentration (average ± deviation)” value ([4]; Table 12) was 476.0 ± 2.5 pg/µL.
For `CCCCC/C=C\C/C=C\CCCCCCCC(=O)OC(COC(=O)CC)COC(=O)CCCCCCC` (centres unmarked) [EC_A87], the “CXCL8 … (average ± deviation)” value [1] was 134.4 ± 10.7 pg/µL, the “IL-6 concentration (average ± deviation)” value ([2]; Table 3) was 0.705 ± 0.158 pg/µL and the “STAT3 activity_Luciferase activity (average ± deviation)” value [3] was 1312 ± 34.6. The “decrease of IL-4 secretion/expression” value [4] was “about 20%” and the “IL-4 concentration (average ± deviation)” value ([4]; Table 12) was 511.0 ± 0.6 pg/µL.
`CCCCC/C=C\C/C=C\CCCCCCCC(=O)OC(COC(=O)CCCCCCC)COC(=O)C(C)C` (centres unmarked) [EC_A88] was tested, and the “CXCL8 … (average ± deviation)” value [1] was 91.4 ± 3.4 pg/µL, the “IL-6 concentration (average ± deviation)” value ([2]; Table 3) was 0.792 ± 0.086 pg/µL and the “STAT3 activity_Luciferase activity (average ± deviation)” value [3] was 1171.5 ± 146.3. The “IL-4 concentration (average ± deviation)” value ([4]; Table 12) was 654.7 ± 0.6 pg/µL.
In the case of `CCCCCC=CCC=CCCCCCCCC(=O)OC(COC(=O)CCCCCCC)COC(=O)C(C)(C)C` (centres unmarked) [EC_A89], the “CXCL8 … (average ± deviation)” value [1] is reported as 123.1 ± 0.0 pg/µL, the “IL-6 concentration (average ± deviation)” value ([2]; Table 3) is reported as 0.736 ± 0.097 pg/µL and the “STAT3 activity_Luciferase activity (average ± deviation)” value [3] is reported as 1087.7 ± 257.7. For the same compound, the “IL-4 concentration (average ± deviation)” value ([4]; Table 12) was 620.1 ± 22.4 pg/µL.
